Data published in patent EP0414533A1, “Use of iodopropargyl esters of alpha-amino acid derivatives as antimicrobial agents” (ROHM AND HAAS COMPANY, priority 1989, dated 1991).
Converted amounts (≈) assume the structure as drawn. “And” between values parts separate entries of the source, which are not always exact repeats. Equal entries are not always repeated. Structures can show the parent of a compound that is named as a salt. Where two headings read alike, the source gives them in different places.

Tests used:
[1] = system: Xanthomonas campestris (XAN); experiment: In-vitro plant fungicide test; assay type: cell-based; conditions: 25 ppm, Table IVa; for inhibition of growth at 25 ppm: Xanthomonas campestris, read-out: % Control at 25 ppm XAN
THREE FUNGI = experiment: MIC test against three fungi in Mycophile Broth, pH 5.0, read after 8 days (Table VII); assay type: cell-based; conditions: for MIC: 192 h
Rhizoctonia solani (RHI) = experiment: In-vitro plant fungicide test; assay type: cell-based; conditions: 25 ppm, Table IVa; for inhibition of growth at 25 ppm: Rhizoctonia solani, read-out: % Control at 25 ppm RHI
Fusarium roseum (FUS) = experiment: In-vitro plant fungicide test; assay type: cell-based; conditions: Table IVa, *=Phytotoxic; for inhibition of growth at 25 ppm: Fusarium sambucinum, read-out: % Control at 25 ppm FUS, 25 ppm
Botrytis cinerea (BOC) = experiment: In-vitro plant fungicide test; assay type: cell-based; conditions: 25 ppm, Table IVa, *=Phytotoxic; for inhibition of growth at 25 ppm: Botrytis cinerea, read-out: % Control at 25 ppm BOC
[2] = system: Cochliobolus sativus (HEL); experiment: In-vitro plant fungicide test; assay type: cell-based; conditions: 25 ppm, Table IVa, *=Phytotoxic; for inhibition of growth at 25 ppm: Bipolaris sorokiniana, read-out: % Control at 25 ppm HEL
Piricularia oryzae (PIR) = experiment: microbe, parasite or virus in culture; assay type: cell-based; conditions: for inhibition of growth at 25 ppm: read-out: % Control at 25 ppm PIR
[3] = system: Phytophthora capsici (PHY); experiment: In-vitro plant fungicide test; assay type: cell-based; conditions: 25 ppm, Table IVa; for inhibition of growth at 25 ppm: Phytophthora capsici, read-out: % Control at 25 ppm PHY
Septoria nodorum (SEP) = experiment: In-vitro plant fungicide test; assay type: cell-based; conditions: 25 ppm, Table IVa; for inhibition of growth at 25 ppm: Parastagonospora nodorum, read-out: % Control at 25 ppm SEP
[4] = system: Staphylococcus aureus (SAUR); experiment: Minimum inhibitory concentration (MIC), broth two-fold serial dilution test; conditions: for MIC: Staphylococcus aureus, read-out: MIC (G+) SAUR, M9G (minimal salts media with glucose)
Text: (§1) When the test is ready to be done, each vessel in the dilution series, except the first vessel, contains an equal volume of compound free broth. The first vessel contains twice the volume of broth with the starting concentration of test compound. One half of the broth from the first vessel is transferred to the second vessel. After being mixed, one half the resulting volume is removed from the second vessel and transferred to the third vessel. The entire cycle is repeated sufficiently to give a series of concentrations amounting to 500, 250, 125, 63, 31, 16, 8, and 4 ppm (or 100, 50, 25, 12.5, 6.2, 3.1, 1.6, and 0.8), respectively.
(§2) Each vessel is then inoculated with a cell suspension of the appropriate test organism. Bacteria are grown in broth, fungi on agar slants for a time and at a temperature appropriate to the species being tested, and algae are a mixture of green algae and blue-green bacteria grown in a nutrient media. At the end of the growth period, in the case of bacteria, the broth is vortexed to disperse the cells.
(§3) The vessels are then incubated at the appropriate temperature. After the incubation, the vessels are examined for growth/no growth.

Pythium ultimum (PYU) = experiment: In-vitro plant fungicide test; assay type: cell-based; conditions: 25 ppm, Table IVa; for inhibition of growth at 25 ppm: Globisporangium ultimum, read-out: % Control at 25 ppm PYU
Escherichia coli (ECOL) = experiment: Minimum inhibitory concentration (MIC), broth two-fold serial dilution test; conditions: for MIC: Escherichia coli, read-out: MIC (G-) ECOL, M9G (minimal salts media with glucose); for MIC (G-) ECOL: M9G (minimal salts media with glucose)
Text: as §1, §2, §3

[5] = system: Pseudomonas aerugenosa (PSAE); experiment: as above; conditions: for MIC: Pseudomonas, read-out: MIC (G-) PSAE, M9G (minimal salts media with glucose)
Aspergillus niger (ANIG) = experiment: as above; assay type: cell-based; conditions: M9G (minimal salts media with glucose); for MIC: Aspergillus niger, read-out: MIC (F) ANIG
[6] = system: Aureobasidium pullulans (APUL); experiment: as above; assay type: cell-based; conditions: M9G (minimal salts media with glucose); for MIC: Aureobasidium pullulans, read-out: MIC (F) APUL
[7] = system: Pseudomonas fluorescens (PSFL); experiment: as above; conditions: Pseudomonas fluorescens, read-out: MIC (G-) PSFL, M9G (minimal salts media with glucose)
[8] = Aspergillus niger, serial dilutions from 50 ppm, read after 8 days of incubation, read-out: MIC ANIG
[9] = Aureobasidium pullulans, serial dilutions from 50 ppm, read after 8 days of incubation, read-out: MIC APUL
[10] = Gloeophyllum trabeum, serial dilutions from 50 ppm, read after 8 days of incubation, read-out: MIC GTRA
[11] = Table IIIc, iodopropargyl esters of peptides

SMILES	% Control at 25 ppm FUS (Fusarium roseum (FUS))	MIC (Escherichia coli (ECOL); Table IIIa)	inhibition of growth at 25 ppm [1]	MIC (THREE FUNGI; [8])	MIC (THREE FUNGI; [9])	MIC (THREE FUNGI; [10])	inhibition of growth at 25 ppm (Rhizoctonia solani (RHI))	inhibition of growth at 25 ppm (Fusarium roseum (FUS))	MIC ([5]; Table IIIa)	inhibition of growth at 25 ppm (Piricularia oryzae (PIR))	inhibition of growth at 25 ppm [3]	inhibition of growth at 25 ppm (Septoria nodorum (SEP))	inhibition of growth at 25 ppm (Pythium ultimum (PYU))	inhibition of growth at 25 ppm (Botrytis cinerea (BOC))	inhibition of growth at 25 ppm [2]	MIC (Escherichia coli (ECOL); [11])	MIC [6, 11]	other results
C#CCSC[C@H](NC(=O)OC(C)(C)C)C(=O)OCC#CI [Compound 6, N-t-butoxycarbonyl-S-propargyl-L-cysteine iodopropargyl ester]	100%	–	–	–	–	–	–	–	–	–	–	–	–	–	–	–	–	% Control at 25 ppm XAN [1]: 0%; MIC ANIG (THREE FUNGI; Aspergillus niger, serial dilutions from 50 ppm, read after 8 days of incubation): 12.5 ppm; MIC APUL (THREE FUNGI; Aureobasidium pullulans, serial dilutions from 50 ppm, read after 8 days of incubation): 25 ppm; MIC GTRA (THREE FUNGI; Gloeophyllum trabeum, serial dilutions from 50 ppm, read after 8 days of incubation): 3.2 ppm; % Control at 25 ppm RHI (Rhizoctonia solani (RHI)): 100%; % Control at 25 ppm BOC (Botrytis cinerea (BOC)): 0%; % Control at 25 ppm HEL [2]: 100%; % Control at 25 ppm PIR (Piricularia oryzae (PIR); 25 ppm): 100%; % Control at 25 ppm PHY [3]: 100%; % Control at 25 ppm SEP (Septoria nodorum (SEP)): 100%; MIC (G+) SAUR ([4]; M9G (minimal salts media with glucose), Table IIIa): >100 PPM and 64 PPM; % Control at 25 ppm PYU (Pythium ultimum (PYU)): 100%
CC(C)(C)OC(=O)N[C@@H](CSCc1ccccc1)C(=O)OCC#CI [Compound 4, N-t-butoxycarbonyl-S-benzyl-L-cysteine iodopropargyl ester]	100%	> 100 µg/mL	0%	50 µg/mL (≈ 105 µM)	50 µg/mL (≈ 105 µM)	6.2 µg/mL (≈ 13 µM)	100%	95%	> 100 µg/mL	100%	100%	100%	100%	–	–	–	–	MIC (Aspergillus niger (ANIG); Table IIIa): 3 µg/mL; MIC ([6]; Table IIIa): 3 µg/mL; MIC ([4]; Table IIIa): 25 µg/mL; MIC ([7]; Table IIIa): > 10 µg/mL
NCC(=O)OCC#CI [Compound 7, glycine iodopropargyl ester trifluoroacetate]	–	100 µg/mL	0%	–	–	–	100%	100%	100 µg/mL	100%	100%	100%	100%	100%	100%	–	–	MIC (G-) ECOL (Escherichia coli (ECOL); Table IIIa, trifluoroacetate): 64 PPM; MIC (THREE FUNGI; Aspergillus niger, pH 5, read-out: MIC ANIG, Aspergillus niger, serial dilutions from 50 ppm, read after 8 days of incubation): 25 µg/mL; MIC (THREE FUNGI; Aureobasidium pullulans, pH 5, read-out: MIC APUL, Aureobasidium pullulans, serial dilutions from 50 ppm, read after 8 days of incubation): 50 µg/mL; MIC (THREE FUNGI; Gloeophyllum trabeum, pH 5, read-out: MIC GTRA, Gloeophyllum trabeum, serial dilutions from 50 ppm, read after 8 days of incubation): 12.5 µg/mL; MIC (G-) PSAE ([5]; M9G (minimal salts media with glucose), Table IIIa, trifluoroacetate): 125 PPM
C[C@H](NC(=O)[C@@H](C)NC(=O)OC(C)(C)C)C(=O)OCC#CI [Compound 26, N-t-butoxycarbonyl-D-alanyl-L-alanine iodopropargyl ester]	–	–	–	25 µg/mL (≈ 58.9 µM)	50 µg/mL (≈ 118 µM)	6.2 µg/mL (≈ 14.6 µM)	–	–	–	–	–	–	–	–	–	63 µg/mL	< 4 µg/mL	MIC (G-) ECOL (Escherichia coli (ECOL); [11]): 32 PPM; MIC (F) ANIG (Aspergillus niger (ANIG); [11]): <4 PPM; MIC (F) APUL [6, 11]: 8 PPM
C[C@H](NC(=O)CNC(=O)OC(C)(C)C)C(=O)OCC#CI [Compound 27, N-t-butoxycarbonylglycyl-L-alanine iodopropargyl ester]	–	–	0%	25 µg/mL (≈ 60.9 µM)	50 µg/mL (≈ 122 µM)	6.2 µg/mL (≈ 15.1 µM)	100%	100%	–	0%	–	100%	100%	75%	100%	250 µg/mL	8 µg/mL	MIC [5, 11]: 250 µg/mL; MIC (Aspergillus niger (ANIG); [11]): < 4 µg/mL; MIC [4, 11]: 125 µg/mL; MIC [7, 11]: 125 µg/mL
